Assay results reported in US20230363389A1, “MAMMAL REPELLENT” (SCENT SCIENCE INTERNATIONAL INC., priority 2020, published 2023).

How the values were obtained:
[1] = test system: birds; details: reported, Non-Patent Literature 5; cited from earlier work
[2] = test system: mice; details: reported, Non-Patent Literature 5; cited from earlier work
[3] = test system: C57/BL6 male mice; assay: Freezing test: innate fear (freezing) behavior of mice exposed to odor gas; type: in vivo, mouse; details: for freezing behavior-inducing activity (Freezing time): 10 ppm gas, 20 min observation, n = 6
Description: A 10 ppm gas was generated for 9 kinds of available odor molecules from those reported to have a repellent effect on birds by using a gas permeator (manufactured by GASTEC, PD-1B-2). Holes (4.5 cm and 12 cm high) were respectively drilled on opposite sides of a sealed test cage (17×17×18.5 cm), a tube for discharging the gas generated by the permeator was connected to the lower hole, the gas was introduced, and the higher hole allowed the air in the test cage to be released. After the air in the test cage was completely replaced by the odor gas, C57/BL6 male mice aged about 2 months to 6 months were put into the test cage (one mouse per cage), and the freezing behavior was analyzed by a freezing behavior automatic analyzer (manufactured by Actimetrics, Freeze Frame2) for 20 min. The time during which the mouse was motionless for 2 seconds or longer was measured as a freezing behavior, and the duration of freezing behavior within 20 minutes of observation time (Freezing time) was shown in %. Each experiment was performed with n = 6.
A constant concentration of the gas of the following various compounds was generated by a gas permeator (manufactured by GASTEC, PD-1B-2). When the concentration is not particularly indicated, an odor gas was generated at a concentration of 10 ppm. Holes (4.5 cm and 12 cm high) were respectively drilled on opposite sides of a sealed test cage (17×17×18.5 cm), a tube for discharging the gas generated by the permeator was connected to the lower hole, the gas was introduced, and the higher hole allowed the air in the test cage to be released. After the air in the test cage was completely replaced by the odor gas, C57/BL6 male mice aged about 2 months to 6 months were put into the test cage (one mouse per cage), and the freezing behavior was analyzed by a freezing behavior automatic analyzer (manufactured by Actimetrics, Freeze Frame2) for 20 min. The time during which the mouse was motionless for 2 seconds or longer was measured as a freezing behavior, and the duration of freezing behavior within 20 minutes of observation time (Freezing time) was shown in %. Each experiment was performed with n = 6. […]
A 10 ppm gas of thiophene and 2-acetylthiophene was generated using a gas permeator (manufactured by GASTEC, PD-1B-2). […] After the air in the test cage was completely replaced by the odor gas, C57/BL6 male mice aged about 2 months to 6 months were put into the test cage (one mouse per cage), and the freezing behavior was analyzed by a freezing behavior automatic analyzer (manufactured by Actimetrics, Freeze Frame2) for 20 min. The time during which the mouse was motionless for 2 seconds or longer was measured as a freezing behavior, and the duration of freezing behavior within 20 minutes of observation time (Freezing time) was shown in %. […]

Row | Structure (SMILES) | repellent activity in birds [1] | activity to induce freezing behavior in mice [2] | freezing behavior-inducing activity (Freezing time) ([3]; Example 1, FIG. 1) | freezing behavior-inducing activity (Freezing time) ([3]; Example 3, FIG. 3) | significant difference from no odor, student's t-test ([3]; Example 3, freezing time versus no odor)
1 | Cc1csc(C)n1 [2,4-dimethyl-thiazole] | does not show repellent activity | has an activity to induce freezing behavior |  |  | 
2 | CC(=O)c1cccs1 [2-acetylthiophene] |  |  | induced a freezing behavior | very strong freezing behavior | 
3 | c1ccsc1 [thiophene] |  |  |  | very low | no significant difference
